# Data published in patent US20070155803A1, “Protease inhibitors” (ProZymex A/S, priority 2003, published 2007).
# Square brackets hold non-standard residues; d marks the D form. Peptide text beside a SMILES is read from it. Phe(3-F) = N[C@@H](Cc1cccc(F)c1)C(=O)O; hPhe = N[C@@H](CCc1ccccc1)C(=O)O; Abu = CC[C@H](N)C(=O)O; azaGly = NNC(=O)O
# Experiments:
# CYP3A4 = biological target: T1, CYP3A4 (Homo sapiens, UniProt P08684); experiment: CYP3A4 assay (Vivid CYP3A4 Red Screening Kit); type: in vitro ADME; details: read-out: Metabolism: CYP enzymes (20 μM cutoff or IC50) CYP3A4
# T1 construct: purchased PanVera Vivid CYP3A4 Red Screening Kit
# T1 sequence (P08684 whole entry): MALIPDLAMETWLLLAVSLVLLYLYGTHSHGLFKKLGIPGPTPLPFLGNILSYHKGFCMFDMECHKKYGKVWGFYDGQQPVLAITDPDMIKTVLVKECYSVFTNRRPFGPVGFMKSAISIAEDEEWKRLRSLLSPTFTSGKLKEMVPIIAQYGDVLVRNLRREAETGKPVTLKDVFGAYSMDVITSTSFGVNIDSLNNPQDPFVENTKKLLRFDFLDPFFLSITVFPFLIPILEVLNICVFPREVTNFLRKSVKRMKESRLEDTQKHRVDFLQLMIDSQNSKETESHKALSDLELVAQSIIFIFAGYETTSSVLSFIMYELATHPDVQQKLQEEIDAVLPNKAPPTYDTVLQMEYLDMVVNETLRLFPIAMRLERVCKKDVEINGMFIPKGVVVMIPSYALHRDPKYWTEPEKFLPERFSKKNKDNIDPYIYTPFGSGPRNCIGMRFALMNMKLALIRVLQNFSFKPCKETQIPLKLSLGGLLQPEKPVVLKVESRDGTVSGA
# Description: Tubes thawed on ice. 2× reaction buffer dispensed (room temperature) in two eppendorf tubes (for Mix A and Mix B).
# Controls or compounds of the invention: Diluted to a concentration of 50 μM. Positive control compound: α-naphthoflavone.
# Negative controls: DMSO and H2O.
# Mix A: 485 μL reaction buffer, 10 μL regeneration system, 5 μL Baculosome reagent. Mixed gently and placed on ice.
# Mix B: 88.5 μL reaction buffer, 1.5 μL substrate, 10 μL 10 mM NADP^+.
# In a 96-well plate (Costar c-3904), 40 μL of 50 μM sample dispensed. 50 μl Mix A added. Incubated 20 min. at rt. Then, 10 μl of Mix B added. Fluorescence determined (Molecular Devices, SPECTRAmax Gemini EM): Ex: 409 nm, Em: 460 nm, at 37° C. for 20 min. (Automix: 5 s, top read.).
# Following the procedure for CYP1A2, using the appropriate kits below, the effect of a compound of the invention on the other CYP enzymes was determined:
# Vivid® CYP3A4 Red Screening Kit from PanVera.
# Aspergillus DPP-IV = biological target: T2, Aspergillus DPP-IV (UniProt Q2UH35); experiment: Aspergillus DPP-IV assay; type: biochemical
# T2 construct: Aspergillus DPP-IV (Enzyme System Products, SPE01)
# T2 sequence (Q2UH35 1-771): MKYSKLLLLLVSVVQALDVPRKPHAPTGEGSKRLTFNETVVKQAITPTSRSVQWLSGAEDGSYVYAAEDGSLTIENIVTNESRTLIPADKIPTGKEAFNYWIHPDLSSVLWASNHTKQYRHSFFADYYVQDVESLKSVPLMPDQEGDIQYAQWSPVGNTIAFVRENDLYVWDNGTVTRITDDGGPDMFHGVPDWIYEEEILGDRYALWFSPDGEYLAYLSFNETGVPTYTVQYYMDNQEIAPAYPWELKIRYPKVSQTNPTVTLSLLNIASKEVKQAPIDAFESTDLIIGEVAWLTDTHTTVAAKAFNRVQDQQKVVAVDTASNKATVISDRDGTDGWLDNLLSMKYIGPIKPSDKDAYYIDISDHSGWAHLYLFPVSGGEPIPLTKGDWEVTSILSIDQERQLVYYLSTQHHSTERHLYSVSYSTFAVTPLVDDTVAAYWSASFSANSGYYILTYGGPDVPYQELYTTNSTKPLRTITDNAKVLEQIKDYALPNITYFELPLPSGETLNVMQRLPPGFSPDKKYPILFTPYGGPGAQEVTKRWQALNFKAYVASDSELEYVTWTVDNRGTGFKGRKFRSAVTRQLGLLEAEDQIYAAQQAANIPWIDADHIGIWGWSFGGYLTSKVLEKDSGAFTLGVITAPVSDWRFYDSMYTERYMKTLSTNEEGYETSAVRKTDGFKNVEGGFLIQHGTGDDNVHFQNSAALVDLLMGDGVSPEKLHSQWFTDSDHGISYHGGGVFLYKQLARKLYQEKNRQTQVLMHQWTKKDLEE
# Description: Using this assay, the selectivity of a compound of the invention for hDPP-I over Aspergillus DPP-IV was determined, using a fluorogenic substrate.
# Aspergillus DPP-IV (Enzyme System Products, SPE01; 5 mU dissolved in 25 μL assay buffer, giving a stock with a concentration of a 0.2 mU/μL). Prior to running experiment, 5 μL of enzyme stock solution was diluted to 0.004 mU/μL with 245 μL buffer.
# Gly-Pro-AFC*TFA (Enzyme System Products AF039; 10 mg) was dissolved in 1 mL DMSO, giving a 20 mM solution. Diluted further in buffer to. 1 mM.
# The assay was performed in 96-well plates. 60 μL assay buffer was added to the well followed-by 10 μL 1% DMSO in assay buffer (control) or a compound of the invention (100 μM, corresponding to 10 μM in the assay). Incubated at 37° C., then 10 μL enzyme (corresponding to 0.04 mU in assay) was added, followed by 10 μL substrate (100 μM in the assay). The excitation wavelength was 400 nm, and the emission was measured at 505 nm for 10-20 minutes at 30° C. Each measurement was made in duplicate. In the software (SOFTmax Pro) used for data collection from the fluorometer (Molecular Devices: Gemini XS), it was ensured that the measured slopes were linear (R^2>0.99). Data were exported to GraphPad Prism and nonlinear regression was performed using the option Sigmoidal dose-response (variable slope).
# Human liver cathepsin H = biological target: T3, Human liver cathepsin H (Homo sapiens, UniProt P09668); experiment: Human liver cathepsin H assay; type: biochemical
# T3 construct: Human liver catheptin H (Enzyme System Products Cath-1; 25 μg); purchased Enzyme System Products Cath-1; host or cells: human liver
# T3 sequence (P09668 98-335): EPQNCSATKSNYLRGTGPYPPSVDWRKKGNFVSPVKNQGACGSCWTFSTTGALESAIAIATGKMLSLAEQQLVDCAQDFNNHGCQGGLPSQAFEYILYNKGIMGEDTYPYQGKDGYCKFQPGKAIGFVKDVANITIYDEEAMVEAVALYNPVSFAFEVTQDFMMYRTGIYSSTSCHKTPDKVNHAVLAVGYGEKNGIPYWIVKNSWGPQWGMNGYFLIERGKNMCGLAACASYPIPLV
# Description: Human Liver Cathepsin H Assay
# Using this assay, the selectivity of a compound of the invention for hDPP-I over human cathepsin H was determined, using a fluorogenic substrate.
# Human liver catheptin H (Enzyme System Products Cath-1; 25 μg) was solubilized in 60 μL enzyme buffer (giving a stock with a concentration of 417 ng/μL). Enzyme stock (5 μL) was diluted with 1245 μL enzyme-buffer. Prior to running experiment 1 μL 0.5 M DTT/100 μL enzyme solution was added. Incubated for 5 minutes on ice, then added to reaction mixture.
# ARG-AFC*2HBR (Enzyme System Products AF002; 10.6 mg) was dissolved in 1 mL DMSO, giving a 20 mM solution. Km for this substrate has been determined to be 27 μM
# The assay was performed in 96-well plates. 50 μL assay buffer was added to the well followed by 25 μL reference inhibitor (cystatin; stock 1 mg/mL, diluted with assay buffer to give 10 nM in assay) or a compound of the invention (diluted with assay buffer to give 10 μM in the assay). Then 25 μL (40 ng) enzyme was added, and 1 min. later (at 37° C.), 100 μL ARG-AFC substrate (15 μM in the assay) was added. The excitation wavelength was 400 nm, and the emission was measured at 505 nm for 10-20 minutes at 37° C. […] In the software (SOFTmax Pro) used for data collection from the fluorometer (Molecular Devices: Gemini XS) it was ensured that the measured slopes were linear (R^2>0.99). […]
smiles,measurement,setting,value
"CC[C@H](N)C(=O)NNC(=O)N[C@@H](CCc1ccccc1)C(=O)N[C@@H](Cc1cccc(F)c1)C(N)=O [Example 11, 1-(2S-2-Aminobutanoyl)-4-[2S-N-[2S-3-(m-fluorophenyl)propan-2-yl-amide]-4-phenylbutan-2-yl-amide]semicarbazide] (H-[Abu][azaGly][hPhe][Phe(3-F)]-NH2)",IC50,CYP3A4,0.6 µM
same,Inhibition of DPP-IV (in words),Aspergillus DPP-IV,does not inhibit
same,IC50,"Aspergillus DPP-IV; Aspergillus DPP-IV, 10 μM cutoff, read-out: Secondary enzymatic screening (10 μM cutoff or IC50) DPP-IV",> 10 µM
same,Inhibition of Cathepsin H (in words),Human liver cathepsin H,does not inhibit
same,IC50,"Human liver cathepsin H; human liver cathepsin H, read-out: Secondary enzymatic screening (10 μM cutoff or IC50) Cathepsin H",3.2 µM
